# Experimental data published in US20180133327A1, “Cell Penetrating Peptides and Complexes Comprising the Same” (Amal Therapeutics SA, priority 2015, published 2018).
# What was measured:
# [1] = test system: BMDC, mo-DCs, EL-4 or K562 cells; test: In vitro transduction with fluorescein-conjugated ZEBRA CPP truncation constructs (FACS); format: cell-based, human and mouse; conditions: for kinetic of transduction (entry into cells): fluorescein-conjugated constructs (ZxxOVACD8FAM), 30 minutes, 2 h or 4 h, acidic wash, FACS
# Description: Transduction was assessed in cells with high phagocytosis capacity (dendritic cells of human and mice origin) and in cells with poor phagocytosis capacity (T cells from human, K562, or mouse, EL4, origin). Cells were incubated for 30 minutes, 2 h or 4 h with the fluorescein-conjugated constructs (Z13OVACD8FAM, Z14OVACD8FAM, Z15OVACD8FAM or Z18OVACD8FAM) then subjected to a 30s wash with an acidic buffer to remove membrane bound peptide before FACS analysis.
# In order to more directly assess the transduction capacities of the selected ZEBRA CPP truncations Z13, Z14, Z15 and Z18 fluorescein-conjugated constructs (Z13OVACD8FAM, Z14OVACD8FAM, Z15OVACD8FAM and Z18OVACD8FAM) were synthesized. To this end, 5-(and-6)-carboxyfluorescein (mixed isomers; e.g. ThermoFisher Scientific catalogue no. C194) was added to each of Z13OVACD8 (SEQ ID NO: 29), Z14OVACD8 (SEQ ID NO: 30), Z15OVACD8 (SEQ ID NO: 31) and Z18OVACD8 (SEQ ID NO: 34).
# These fluorescein-conjugated constructs (Z13OVACD8FAM, Z14OVACD8FAM, Z15OVACD8FAM and Z18OVACD8FAM) were tested for their ability to transduce different human and mouse cell types, in particular (i) cells with high phagocytosis capacity, namely dendritic cells (DCs) of human […], and (ii) cells with poor phagocytosis capacity, namely T cells from human, K562, or mouse, EL4, origin). The EL-4 thymoma cell line was maintained in complete RPMI 1640 medium. The K562 cell line was maintained in complete Iscove's modified Dulbecco's medium. BMDC, mo-DCs, EL-4 or K562 cells were incubated for 4 h at 37° C. with the fluorescein-conjugated constructs as described above (Z13OVACD8FAM, Z14OVACD8FAM, Z15OVACD8FAM or Z18OVACD8FAM). For removal of membrane bound peptide prior to cell transduction, a 30s wash with an acidic buffer (0.2 M Glycine, 0.15 M NaCl, pH 3) was performed. Cells were then analyzed by flow cytometry (FACS).
# [2] = test system: IFN-γ-producing OVA257-264-specific CD8 T cells; test: Vaccination with ZEBRA CPP truncation constructs plus TLR agonist adjuvant, IFN-γ Elispot on spleen cells, CD8; format: in vivo, mice
# Description: (§1) Mice were vaccinated three times (wk0, wk2 and wk9) by s.c. injection (right flank) of 10 nmoles of OVACD8CD4 (the cargo without Zebra CPP truncation), Z13OVACD8CD4, Z14OVACD8CD4, Z15OVACD8CD4, Z18OVACD8CD4 and i.m. injection of 50 μg of Hiltonol (right hind leg). One week after the last vaccination, Elispot assay was performed on spleen cells for detecting IFN-y-producing OVA257-264-specific CD8 T cells (A) and OVA323-339-specific CD4 T cells (B). *, p<0.05; **, p<0.01.
# as §1, with “Z15OVACD8CD4 or” for “Z15OVACD8CD4,”, “20” for “i.m. injection of 50”, “Pam3CSK4.” for “Hiltonol (right hind leg).”, “IFN-γ-producing” for “IFN-y-producing”
# Mice were vaccinated three times (wk0, wk2 and wk9) by s.c. injection (right flank) of 10 nmoles of Z13OVACD8CD4, Z15OVACD8CD4 or Z18OVACD8CD4 and 20 μg of MPLA. One week after the last vaccination, Elispot assay was performed on spleen cells for detecting IFN-γ-producing OVA257-264-specific CD8 T cells (A) and OVA323-339-specific CD4 T cells (B). *, p<0.05; **, p<0.01.
# To extend the previous findings to in vivo vaccination, Z13, Z14, Z15 and Z18 conjugated to antigenic cargo containing both CD8 and CD4 T cell epitopes from OVA (as described in Example 4 for Z13, Z15 and Z18) was synthesized. For Z14 the construct was as follows:
# Firstly, those constructs were tested with Hiltonol adjuvant (a TLR3 agonist). […] The number of peptide-specific IFN-γ-producing cells was calculated by subtracting the number of IFN-γ-secreting cells cultured without peptide to that obtained with cells cultured with peptide. […]
sequence,measurement,setting,value
KRYKNRVASRKSRAKFK (CPP Z15) [ZEBRA CPP truncation],kinetic of transduction (entry into cells),[1],slower
same,"CD8 T cell immune responses, for any adjuvant","[2]; 10 nmol ZxxOVACD8CD4 s.c. wk0, wk2, wk9, Hiltonol, Pam3CSK4 or MPLA",low CD8 T cell immune responses
KRYKNRVASRKSRAKFKQLLQHYREVAAAK [Z14],kinetic of transduction (entry into cells),[1],rapidly entering in the majority of the cells
KRYKNRVASRKSRAKFKQLLQHYREVAAAKSSENDRLRLLLK [Z13],kinetic of transduction (entry into cells),[1],rapidly entering in the majority of the cells
same,"CD8 immune response, combined with MPLA","[2]; 10 nmol ZxxOVACD8CD4 s.c. wk0, wk2, wk9 and 20 μg MPLA (TLR4 agonist)",most efficacious
REVAAAKSSENDRLRLLLK [Z18],kinetic of transduction (entry into cells),[1],slower
same,"transduction efficacy, all cell types","[1]; fluorescein-conjugated constructs, compared to other ZEBRA CPP truncations",lower transduction efficacy
same,"CD8 immune response, combined with Pam3CSK4","[2]; 10 nmol ZxxOVACD8CD4 s.c. wk0, wk2, wk9 and 20 μg Pam3CSK4 (TLR2 agonist)",highest CD8 and CD4 immune response
